Patent US12492208B2, “Crystal of pyrimidine compound” (TAIHO PHARMACEUTICAL CO., LTD., priority 2020, dated 2025)
pIC50: −log10 of the molar value.

Experiments:
[1] = biological target: T1, recombinant human HER2 exon 20 insertion mutant (A775_G776insYVMA) protein (Homo sapiens, UniProt P04626, INS775YVMA); experiment: Inhibitory action (in vitro) against HER2 exon 20 insertion mutant phosphorylation activity; format: biochemical; conditions: pre-incubated 30 minutes, ATP 200 μM, 220 minutes; read-out: HER2ex20insYVMA inhibitory activity IC50 value
T1 construct: purchased SignalChem
From the text: In order to determine conditions for a method of measuring the in vitro inhibitory activity of a compound against HER2 exon 20 insertion mutant phosphorylation activity, as in the case of HER2, ProfilerPro Peptide 22 was used as a substrate. A purified recombinant human HER2 exon 20 insertion mutant (A775_G776insYVMA) protein was purchased from SignalChem. Upon the measurement of the inhibitory activity of the compound, first, the compound (I) obtained according to the method in Synthesis Example 1 was diluted stepwise with dimethyl sulfoxide (DMSO). Subsequently, the HER2 exon 20 insertion mutant protein and the compound (I) in DMSO solution (final concentration of DMSO: 5%) were added into a buffer for the kinase reaction (13.5 mM Tris (pH 7.5), 2 mM dithiothreitol, and 0.009% Tween 20), and the obtained mixture was then pre-incubated at 25° C. for 30 minutes. […] Finally, using LabChip (registered trademark) EZ Reader II (PerkinElmer), an unphosphorylated substrate peptide(S) and a phosphorylated peptide (P) were separated and detected according to microchannel capillary electrophoresis. […]

SK-BR-3 cells = experiment: Growth inhibitory activity against HER2 expressing cell line; format: cell-based; conditions: Homo sapiens, SK-BR-3, 72 h; 3 days, CellTiter-Glo 2.0
Experimental: SK-BR-3 cells as a HER2 overexpressing human breast cancer cell line were suspended in a McCoy's 5a medium (manufactured by Life Technologies) supplemented with 10% fetal bovine serum. The cell suspension was seeded in each well of a 384-well flat-bottom microplate, and was then cultured in a 5% carbon dioxide gas-containing culture vessel at 37° C. for 1 day. Thereafter, the compound (I) obtained according to the method in Synthesis Example 1 was dissolved in DMSO, and the compound was diluted to 500 times the final concentration in DMSO. The compound in the DMSO solution was diluted with DMSO solution or the medium used in the suspension of the cells, and the obtained solution was then added to each well of the culture plate so that the final concentration of DMSO was 0.2%. The obtained mixture was further cultured in the 5% carbon dioxide gas-containing culture vessel at 37° C. for 3 days. After completion of the culture for 3 days in the presence of the compound, the cells were counted using CellTiter-Glo 2.0 (manufactured by Promega), and the growth inhibition percentage was then calculated according to the following equation. The concentration of the compound, in which the growth of the cells can be inhibited by 50%, was defined as IC50 (nM). […]

T1 sequence (P04626 with tags, fused parts or gaps INS775YVMA limits assumed): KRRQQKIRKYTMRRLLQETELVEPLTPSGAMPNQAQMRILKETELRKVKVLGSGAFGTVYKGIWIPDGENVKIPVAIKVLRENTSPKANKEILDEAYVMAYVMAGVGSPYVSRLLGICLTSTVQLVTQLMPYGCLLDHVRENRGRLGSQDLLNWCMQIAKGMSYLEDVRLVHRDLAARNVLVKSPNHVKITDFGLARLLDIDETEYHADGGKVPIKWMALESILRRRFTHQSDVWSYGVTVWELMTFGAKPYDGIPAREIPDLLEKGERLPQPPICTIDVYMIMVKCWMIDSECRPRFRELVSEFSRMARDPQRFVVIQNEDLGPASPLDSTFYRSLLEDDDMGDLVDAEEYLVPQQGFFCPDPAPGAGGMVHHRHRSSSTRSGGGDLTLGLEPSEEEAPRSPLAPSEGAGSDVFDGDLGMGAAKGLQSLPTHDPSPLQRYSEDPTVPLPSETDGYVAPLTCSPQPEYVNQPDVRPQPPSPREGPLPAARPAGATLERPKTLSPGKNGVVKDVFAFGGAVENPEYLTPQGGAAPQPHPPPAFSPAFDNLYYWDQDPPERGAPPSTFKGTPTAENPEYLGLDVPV

- pIC50 [1]: > 9.52
- pIC50 (SK-BR-3 cells): 8.18
Structure (SMILES): C=CC(=O)N1C[C@H](n2c(C#CC3CC3)c(C(=O)N[C@H](C)c3ccccc3)c3c(N)ncnc32)C[C@@H]1C [compound (I), 7-((3R,5S)-1-acryloyl-5-methylpyrrolidin-3-yl)-4-amino-6-(cyclopropylethynyl)-N—((R)-1-phenylethyl)-7H-pyrrolo[2,3-d]pyrimidine-5-carboxamide]
